One series has as its system Typhlodromus pyri. The experiment in a line: LR50; higher = less toxic. To be noted: chronic/long-term; duration: 7 days; mortality.
A further series concerns Canidae. To be noted: subchronic; duration: 90 days; oral; Dog Other; clinical signs.
A further series concerns Coturnix coturnix. To be noted: oral.
The test system of the next series is Oryctolagus sp. The conditions noted are these: developmental; development.
Another series has as its system Oncorhynchus mykiss. The conditions noted are these: for NOEC: chronic/long-term.
Another series concerns Apis mellifera. The conditions noted are these: acute, mortality.
Another series relates to Daphnia magna. To be noted: chronic/long-term.
The next series has as its system Aphidius rhopalosiphi. The conditions noted are these: not reported; mortality.

Where “and” joins values, the source holds several entries; their conditions need not be identical. Equal entries are not always repeated.

The NOAEL is the highest tested level that showed no adverse finding. `Cc1ccc(N(SC(F)(Cl)Cl)S(=O)(=O)N(C)C)cc1` [Tolylfluanid] came in with an LR50 in the series with Typhlodromus pyri of 247 g/ha. Further, the LC50 in the series on Tagia sp. (acute, duration: 14 days, mortality) was above 1000 mg/kg; with Coturnix coturnix (acute, duration: 5 days, diet, mortality), above 5000 mg/kg; in the series on Oncorhynchus mykiss (acute, duration: 96 hours, mortality) it was 0.045 µg/mL and 0.016 µg/mL. For the same compound, the NOEC came to 24000 g/ha in the series with Tagia sp. (chronic/long-term, reproduction); 1500 mg/kg-day in the series on Rattus norvegicus (short-term, duration: 28 days, oral, diet); 791 mg/kg-day in the series with Coturnix coturnix (reproduction developmental, duration: 21 weeks, diet); 44 µg/L with Oncorhynchus mykiss (duration: 28 days); 60 µg/L in the series with Oncorhynchus mykiss (duration: 35 days). In addition, the NOAEL in the series with Canidae came out at 33 mg/kg-day; in the series on Rattus norvegicus (reproduction developmental, M, body weight), 12 mg/kg-day; in the series on Oryctolagus sp., 25 mg/kg-day. In addition, the LD50 in the series on Rattus norvegicus (acute, oral, mortality) is above 5000 mg/kg; in the series on Coturnix coturnix (acute, mortality), above 2000 mg/kg; in the series on Apis mellifera (duration: 48 hours, dermal), above 196 µg/piece; in the series with Apis mellifera (oral, unspecified), above 197 µg/piece. Moreover, the NOAEC with Daphnia magna (duration: 40 days) is 180 µg/L; in the series with Daphnia magna (duration: 51 days), 99 µg/L. Moreover, the LEL in the series with Aphidius rhopalosiphi was found to be 2500 g/ha.
